The first assay has as its target T1, hmGluR1 receptor (Homo sapiens, UniProt Q13255).
T1 construct: expressed in transfected cells
In words: IC50 determination: intracellular calcium mobilization (FLIPR) upon Quisqualate stimulation in CHO cells stably expressing hmGluR1. It counts as cell-based. The conditions noted are these: against Quisqualate 1 μM (EC80), FLIPR calcium mobilization, read-out: IC50 Class. The method in brief:
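CHO cells stably expressing hmGluR1 were kept overnight in DMEM high glucose with GPT and 1 mM pyruvate, then loaded 2 h with Calcium 3 dye.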
T1 sequence (Q13255 19-1194): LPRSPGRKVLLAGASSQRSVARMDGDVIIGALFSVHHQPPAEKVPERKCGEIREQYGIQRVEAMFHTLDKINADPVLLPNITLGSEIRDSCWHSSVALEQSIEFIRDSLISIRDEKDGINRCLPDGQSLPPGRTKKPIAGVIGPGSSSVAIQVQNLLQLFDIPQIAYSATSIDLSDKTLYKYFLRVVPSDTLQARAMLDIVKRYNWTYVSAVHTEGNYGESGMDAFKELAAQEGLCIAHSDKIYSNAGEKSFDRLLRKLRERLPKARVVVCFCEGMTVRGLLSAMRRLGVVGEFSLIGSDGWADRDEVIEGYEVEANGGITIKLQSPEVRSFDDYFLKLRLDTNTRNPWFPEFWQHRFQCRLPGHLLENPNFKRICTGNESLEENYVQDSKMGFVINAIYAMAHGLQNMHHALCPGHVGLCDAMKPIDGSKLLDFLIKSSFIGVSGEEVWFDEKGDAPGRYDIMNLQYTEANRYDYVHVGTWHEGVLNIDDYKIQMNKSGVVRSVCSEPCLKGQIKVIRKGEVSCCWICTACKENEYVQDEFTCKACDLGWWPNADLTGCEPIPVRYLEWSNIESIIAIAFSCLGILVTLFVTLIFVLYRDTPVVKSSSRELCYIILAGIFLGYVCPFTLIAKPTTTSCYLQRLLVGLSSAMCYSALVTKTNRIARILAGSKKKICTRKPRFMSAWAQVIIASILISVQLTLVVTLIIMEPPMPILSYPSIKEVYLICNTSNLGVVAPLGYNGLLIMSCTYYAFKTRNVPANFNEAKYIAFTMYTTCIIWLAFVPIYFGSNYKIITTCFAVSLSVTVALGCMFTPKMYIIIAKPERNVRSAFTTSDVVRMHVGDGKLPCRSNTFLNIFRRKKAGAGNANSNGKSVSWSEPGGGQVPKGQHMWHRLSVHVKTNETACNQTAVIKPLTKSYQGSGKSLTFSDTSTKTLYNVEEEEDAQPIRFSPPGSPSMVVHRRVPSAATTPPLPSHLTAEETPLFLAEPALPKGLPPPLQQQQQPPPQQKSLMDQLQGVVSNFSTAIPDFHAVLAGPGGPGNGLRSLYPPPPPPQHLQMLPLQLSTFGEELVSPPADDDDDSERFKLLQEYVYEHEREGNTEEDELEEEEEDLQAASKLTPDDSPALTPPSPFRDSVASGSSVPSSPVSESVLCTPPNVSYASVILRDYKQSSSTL
As to `O=c1c2sc3nccc(NCCCCO)c3c2ncn1-c1ccc(Cl)cc1` [28GE], the concentration for half-maximal inhibition (IC50) is less than 50 nM. The same measure, in the same setting: for `C=C(C)CNc1ncnc2sc3c(=O)n(-c4ccc5sccc5c4)cnc3c12` [95FE] the value was less than 50 nM; for `Cc1ccc(-n2cnc3c(sc4nccc(NCc5cccs5)c43)c2=O)cc1` [28EQ], 150 to 1000 nM. Same read-out and setting: for `Cc1ccc(-n2cnc3c(sc4ncnc(NC5CCC5)c43)c2=O)cc1` [95DH] the value was 150 to 1000 nM; for `O=c1c2sc3nccc(NC4CC4)c3c2ncn1-c1ccc(OS(=O)(=O)C(F)(F)F)cc1` [28HT], more than 1000 nM. Same read-out and setting: next, `O=c1c2sc3ncnc(NCC4CC4)c3c2ncn1-c1ccc(Br)cc1` [95DS]: 150 to 1000 nM; `CCNc1ccnc2sc3c(=O)n(-c4ccc5c(c4)OCCO5)cnc3c12` [28BY]: less than 50 nM; `C=C(C)CNc1ccnc2sc3c(=O)n(-c4ccc5c(c4)OCCO5)cnc3c12` [28FF]: 150 to 1000 nM.

As to `C=C(C)CNc1ccnc2sc3c(=O)n(-c4ccc(Br)cc4)cnc3c12` [28FC], the IC50 was less than 50 nM.

`C=CCNc1ccnc2sc3c(=O)n(-c4ccc(F)cc4)cnc3c12` [28EC]: the IC50 was less than 50 nM. The same measure, in the same setting: for `COc1ccnc2sc3c(=O)n(-c4ccc5c(c4)OCO5)cnc3c12` [28FY] the value was more than 1000 nM; for `CCOC(=O)c1cnc2sc3c(=O)n(-c4ccc(OC)cc4)cnc3c2c1` [144B], more than 1000 nM; for `Cc1ccc(-n2cnc3c(sc4nccc(NCCCO)c43)c2=O)cc1` [28CX], less than 50 nM. Still for that read-out and setting: for `COc1ccc(-n2cnc3c(sc4ncnc(Nc5ccccc5Cl)c43)c2=O)cc1` [190N] the value was more than 1000 nM; for `C=C(C)CNc1ccnc2sc3c(=O)n(-c4ccc(OC)c(F)c4)cnc3c12` [28FE], 50 to 150 nM.

For `CNc1ccnc2sc3c(=O)n(-c4ccc5c(c4)CCO5)cnc3c12` [28BR], the IC50 is less than 50 nM.

In the case of `C=C(C)CNc1ncnc2sc3c(=O)n(-c4ccc(OC)cc4)cnc3c12` [95FT], the IC50 was less than 50 nM. Same read-out and setting: next, `CN(C)c1ccnc2sc3c(=O)n(-c4ccncc4)cnc3c12` [28EE]: 150 to 1000 nM; `C#CCNc1ncnc2sc3c(=O)n(-c4ccc5occc5c4)cnc3c12` [95ES]: less than 50 nM. Turning to `COc1ccc(-n2cnc3c(sc4ncnc(N)c43)c2=O)cc1` [95FU], the IC50 fell in the range of 50 to 150 nM.

With `O=c1c2sc3ncnc(NC4CC4)c3c2ncn1-c1ccc2ncsc2c1` [95AZ], the IC50 is less than 50 nM. The same measure, in the same setting: next, `CN(CC(O)CO)c1ccnc2sc3c(=O)n(-c4ccc(Br)cc4)cnc3c12` (stereo not drawn) [28HU]: less than 50 nM; `CCNc1ccnc2sc3c(=O)n(-c4ccc(Cl)cc4)cnc3c12` [28HZ]: less than 50 nM. The same measure, in the same setting: for `Cc1ccc(-n2cnc3c(sc4ncc(Br)c(N)c43)c2=O)cc1` [173A] the value was less than 50 nM.

Regarding `Cc1ccc(-n2cnc3c(sc4ncnc(NCCCO)c43)c2=O)cc1` [95DL], the IC50 was less than 50 nM. For `Cc1nc(N)c2c(n1)sc1c(=O)n(-c3ccc(Cl)cc3)cnc12` [95EV], the IC50 is less than 50 nM. Same read-out and setting: next, `COCCCNc1ccnc2sc3c(=O)n(-c4ccc(Cl)cc4)cnc3c12` [28GN]: less than 50 nM; `O=c1c2sc3nccc(NC4CC4)c3c2ncn1-c1ccc2c(c1)CCO2` [28CE]: less than 50 nM. `O=c1c2sc3nccc(NC4CC4)c3c2ncn1-c1ccc(C2CC2)cc1` [137I]: the IC50 is 150 to 1000 nM. As for `C#CCNc1nncc2sc3c(=O)n(-c4ccc(C)cc4)cnc3c12` [167J], the IC50 was in the range of 50 to 150 nM. Still for that read-out and setting: for `COc1ccc(Nc2ncnc3sc4c(=O)n(C5CC5)cnc4c23)cc1` [95GL] the value was 150 to 1000 nM; for `O=c1c2sc3nccc(NCCO)c3c2ncn1-c1ccc2occc2c1` [28BD], less than 50 nM; for `C#CCN(C)c1ccnc2sc3c(=O)n(-c4ccc(Br)cc4)cnc3c12` [28DV], less than 50 nM.

The same assay, now with this note: against Quisqualate 1 μM (EC80), FLIPR calcium mobilization, read-out: mGluR1 IC50.
Take `O=c1c2sc3nccc(NCCCCO)c3c2ncn1-c1ccc(Cl)cc1` [28GE]: the IC50 worked out at 0.28 nM. On the same count and under the same terms, for `CCNc1ccnc2sc3c(=O)n(-c4ccc(Cl)cc4)cnc3c12` [28HZ] the value was 1.22 nM; for `Cc1cc(-n2cnc3c(sc4nccc(N(C)C)c43)c2=O)ccc1Br` [7DR], 1.73 nM. The same measure, in the same setting: next, `C#CCN(C)c1ccnc2sc3c(=O)n(-c4ccc(Br)cc4)cnc3c12` [28DV]: 1.87 nM.

Staying with this assay, now noted: against Quisqualate 1 μM (EC80), class symbols, read-out: mGIuR 1 IC50.
Turning to `CN(C)c1ccnc2sc3c(=O)n(-c4ccc(Br)cc4F)cnc3c12` [7DU], the IC50 is less than 50 nM.

On to `Cc1ccc(-n2cnc3c(sc4nccc(NCC5CC5)c43)c2=O)cc1` [28AY], for which the IC50 is 150 to 1000 nM. Same read-out and setting: for `Cc1ccc(-n2cnc3c(sc4nccc(OCCO)c43)c2=O)cc1` [66E] the value was more than 1000 nM; for `CCNc1ccnc2sc3c(=O)n(-c4ccc(OC)cc4)cnc3c12` [131A], less than 50 nM; for `Cc1ccc(-n2cnc3c(sc4nccc(N(C)C)c43)c2=O)cc1Br` [7DQ], less than 50 nM. Regarding `Cc1ccc(-n2cnc3c(sc4nccc(NC5CC5)c43)c2=O)cc1` [28AP], the IC50 was less than 50 nM.

Consider `COc1ccc(-n2cnc3c(sc4nccc(N5CCC5)c43)c2=O)cc1` [28AM], for which the IC50 was 50 to 150 nM. On the same count and under the same terms, next, `CN(C)c1cncc2sc3c(=O)n(-c4ccc(O)cc4)cnc3c12` [37H]: more than 1000 nM. Same read-out and setting: next, `Cc1cc(N(C)C)c2c(n1)sc1c(=O)n(-c3ccccc3)cnc12` [7DB]: less than 50 nM; `Cc1nc2ccc(-n3cnc4c(sc5nccc(N(C)C)c54)c3=O)cc2o1` [7BT]: more than 1000 nM. On the same count and under the same terms, next, `COc1ccc(-c2c(C(C)=O)c(C)nc3sc4c(=O)n(-c5ccccc5)cnc4c23)cc1` [P-12]: 150 to 1000 nM; `CN(C)c1ccnc2sc3c(=O)n(Cc4ccc(Cl)c(Cl)c4)cnc3c12` [7S]: more than 1000 nM. As to `Cc1ccc(-n2cnc3c(sc4nccc(N(C)C)c43)c2=O)cc1C#N` [7DP], the 50% inhibitory concentration (IC50) was 50 to 150 nM. As for `CCCNc1ccnc2sc3c(=O)n(-c4ccc(C)cc4)cnc3c12` [28AS], the IC50 is less than 50 nM.

`CN(C)c1ccnc2sc3c(=O)n(-c4ccc5c(c4)OCCCO5)cnc3c12` [7CH]: the IC50 lay in the range of 150 to 1000 nM. On the same count and under the same terms, for `CC(c1ccccc1)n1cnc2c(sc3nccc(N(C)C)c32)c1=O` (stereo not drawn) [7AH] the value was 50 to 150 nM; for `CC(=O)c1c(C)nc2sc3c(=O)n(-c4ccc(C)cc4)cnc3c2c1-c1ccc(Cl)cc1` [P-8], 150 to 1000 nM. The same measure, in the same setting: next, `COc1ccc(-n2cnc3c(sc4nccc(NC5CC5)c43)c2=O)cc1` [28AL]: less than 50 nM. The same measure, in the same setting: for `CCCN(C)c1ccnc2sc3c(=O)n(-c4ccc(OC)cc4)cnc3c12` [28AO] the value was less than 50 nM; for `COc1ccc(-n2cnc3c(sc4nc(C)cc(N(C)C)c43)c2=O)cc1F` [7CL], 50 to 150 nM; for `CN(C)c1ccnc2sc3c(=O)n(N4CC5CCCC5C4)cnc3c12` (stereo not drawn) [60E], less than 50 nM. For the molecule `Cc1ccc(-n2cnc3c(sc4ncnc(N(C)C)c43)c2=O)cn1` [95O], the IC50 was less than 50 nM. The same measure, in the same setting: next, `Cc1cc(N(C)C)c2c(n1)sc1c(=O)n(-c3cccnc3)cnc12` [7DD]: 150 to 1000 nM; `COc1cc(Cl)nc2sc3c(=O)n(C4CCCCC4)cnc3c12` [compound 78]: more than 1000 nM. For the molecule `Cc1noc(-n2cnc3c(sc4nccc(N(C)C)c43)c2=O)c1C` [15AD], the IC50 is 50 to 150 nM. Still for that read-out and setting: next, `O=c1c2sc3nccc(NCCO)c3c2ncn1C1CCCCC1` [28AG]: 50 to 150 nM. Still for that read-out and setting: for `CN(C)c1ccnc2sc3c(=O)n(-c4ccc(OC(F)F)cc4)cnc3c12` [7Z] the value was less than 50 nM; for `Cc1ccc(-n2cnc3c(sc4nc(N5CCNCC5)cc(N(C)C)c43)c2=O)cc1` [59B], more than 1000 nM. As to `CN(C)c1ccnc2sc3c(=O)n(-c4ccc5c(c4)CCO5)cnc3c12` [7CG], the IC50 is less than 50 nM. On to `CN(C)c1ncnc2sc3c(=O)n(-c4ccc5ncsc5c4)cnc3c12` [95C], for which the concentration for half-maximal inhibition (IC50) is less than 50 nM. For the molecule `CN(C)c1ccnc2sc3c(=O)n(C4CC4)cnc3c12` [15K], the IC50 is more than 1000 nM.

As for `CNc1ccnc2sc3c(=O)n(-c4ccc(O)cc4)cnc3c12` [7CD], the IC50 is less than 50 nM. The same measure, in the same setting: for `COc1ccc(-n2cnc3c(sc4cncc(N(C)C)c43)c2=O)cc1F` [37G] the value was 150 to 1000 nM; for `CN(C)c1ccnc2sc3c(=O)n(CC4CCCCC4)cnc3c12` [15C], less than 50 nM. On to `O=c1c2sc3nccc(NCc4ccccc4)c3c2ncn1C1CCCCC1` [72E], for which the IC50 was more than 1000 nM.

Consider `CN(C)c1ccnc2sc3c(=O)n(-c4ccc5scnc5c4)cnc3c12` [7CR], for which the IC50 is less than 50 nM. On the same count and under the same terms, next, `CCNc1ncnc2sc3c(=O)n(-c4ccc(C)nc4)cnc3c12` [95AB]: 150 to 1000 nM; `O=c1c2sc3nccc(Nc4ccccc4)c3c2ncn1C1CCCCC1` [28H]: more than 1000 nM.

Turning to `CN(C)c1ccnc2sc3c(=O)n(C4CCCc5ccccc54)cnc3c12` (stereo not drawn) [7AI], the IC50 is 150 to 1000 nM.

On to `CC(=O)c1c(C)nc2sc3c(=O)n(-c4ccccc4)cnc3c2c1-c1ccc(Cl)cc1` [P-9], for which the 50% inhibitory concentration (IC50) is 150 to 1000 nM.

Take `CN(C)c1ccnc2sc3c(=O)n(-c4ccc(I)cc4)cnc3c12` [7M]: the IC50 was more than 1000 nM.

Consider `CN(C)c1ccnc2sc3c(=O)n(N)cnc3c12` [60H], for which the IC50 was more than 1000 nM. On the same count and under the same terms, for `CN(C)c1ccnc2sc3c(=O)n(CCO)cnc3c12` [15A] the value was more than 1000 nM; for `Cc1cc(-n2cnc3c(sc4nccc(N(C)C)c43)c2=O)ccc1Br` [7DR], less than 50 nM; for `CCCN(C)c1ccnc2sc3c(=O)n(-c4ccc(C)cc4)c(C)nc3c12` [113M], 50 to 150 nM. Same read-out and setting: for `CCNc1ncnc2sc3c(=O)n(-c4ccc(OC(F)F)cc4)cnc3c12` [95W] the value was less than 50 nM; for `CN(C)c1c(Cl)ncc2sc3c(=O)n(-c4ccc(Cl)cc4)cnc3c12` [compound 54], 150 to 1000 nM; for `COc1ccc(-n2cnc3c(sc4nccc(OC)c43)c2=O)cc1` [25B], 150 to 1000 nM. In the case of `CN(C)c1ccnc2sc3c(=O)n(C4CCOCC4)cnc3c12` [15E], the IC50 was 50 to 150 nM. Still for that read-out and setting: next, `O=c1c2sc3nccc(NC4CCCC4)c3c2ncn1C1CCCCC1` [28T]: more than 1000 nM.

`CN(C)c1ccnc2sc3c(=O)n(-c4ccc(O)cc4)cnc3c12` [7AK]: the IC50 is less than 50 nM. Still for that read-out and setting: next, `CC(=O)Nc1ccc(-n2cnc3c(sc4nccc(N(C)C)c43)c2=O)cc1` [7AL]: more than 1000 nM; `CCNc1ccnc2sc3c(=O)n(-c4ccc(O)cc4)cnc3c12` [131B]: less than 50 nM.

The values above are taken from patent publication US7989464B2, “mGluR1 antagonists as therapeutic agents” (Schering Corporation, priority 2004, dated 2011).
